Measurements reported in ChEMBL document CHEMBL5543075, “Phenoxytacrine derivatives: Low-toxicity neuroprotectants exerting affinity to ifenprodil-binding site and cholinesterase inhibition” (Eur J Med Chem, 2024).
Active and inactive are the calls of the source. The rule behind the calls is not given here.

Tests used:
[1] = Cytotoxicity against CHO-K1 cells incubated for 24 hrs by MTT assay; assay type: toxicity, cell-based, Cricetulus griseus; conditions: Chinese hamster
Acetylcholinesterase = Acetylcholinesterase (Homo sapiens, UniProt P22303); assay: Inhibition of human AChE by spectrophotometric Ellman's method
Cholinesterase = Cholinesterase (Homo sapiens, UniProt P06276); assay: Inhibition of human BChE by spectrophotometric Ellman's method
[2] = molecular target: Glutamate NMDA receptor; GRIN1/GRIN2B (Homo sapiens, UniProt Q05586+Q13224); assay: Inhibition of recombinant human GluN1/GluN2B receptor expressed in HEK293 cells assessed as reduction in glutamate induced current at 1 uM at -60 mV holding potential by electrophysiology assay relative to control; assay type: cell-based
Rattus norvegicus [3] = assay: Antialzheimer activity against scopolamine-induced cognitive impairment in Wistar rat assessed as decrease in mean distance from platform at 2 mg/kg, ip measured upto 4 days by morris water maze test (reference value: 51.7 +/-1.5 cm); assay type: functional; conditions: time <= 4 day
Rattus norvegicus [4] = assay: Antialzheimer activity against scopolamine-induced cognitive impairment in Wistar rat assessed as increase in number of platform crossing at 2 mg/kg, ip measured upto 4 days by morris water maze test; assay type: functional, organism-based; conditions: time <= 4.0 day

Chain of Cholinesterase (P06276 whole entry): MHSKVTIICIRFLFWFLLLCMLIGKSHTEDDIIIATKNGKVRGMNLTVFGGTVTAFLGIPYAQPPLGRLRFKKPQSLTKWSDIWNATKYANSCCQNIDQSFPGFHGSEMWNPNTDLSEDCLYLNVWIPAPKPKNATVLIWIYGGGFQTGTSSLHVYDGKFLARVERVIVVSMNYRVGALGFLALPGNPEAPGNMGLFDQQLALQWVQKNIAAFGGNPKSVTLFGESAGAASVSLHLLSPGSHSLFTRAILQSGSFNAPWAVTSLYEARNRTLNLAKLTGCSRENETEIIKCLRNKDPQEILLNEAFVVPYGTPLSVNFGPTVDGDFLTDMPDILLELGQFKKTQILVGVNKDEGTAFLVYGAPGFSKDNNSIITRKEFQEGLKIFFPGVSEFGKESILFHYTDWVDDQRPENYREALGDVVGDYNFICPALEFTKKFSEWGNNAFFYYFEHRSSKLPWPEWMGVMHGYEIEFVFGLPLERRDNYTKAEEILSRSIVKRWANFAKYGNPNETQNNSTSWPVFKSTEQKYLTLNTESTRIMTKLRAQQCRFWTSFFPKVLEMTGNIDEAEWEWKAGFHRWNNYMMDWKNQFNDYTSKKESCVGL
Chain of Acetylcholinesterase (P22303 whole entry): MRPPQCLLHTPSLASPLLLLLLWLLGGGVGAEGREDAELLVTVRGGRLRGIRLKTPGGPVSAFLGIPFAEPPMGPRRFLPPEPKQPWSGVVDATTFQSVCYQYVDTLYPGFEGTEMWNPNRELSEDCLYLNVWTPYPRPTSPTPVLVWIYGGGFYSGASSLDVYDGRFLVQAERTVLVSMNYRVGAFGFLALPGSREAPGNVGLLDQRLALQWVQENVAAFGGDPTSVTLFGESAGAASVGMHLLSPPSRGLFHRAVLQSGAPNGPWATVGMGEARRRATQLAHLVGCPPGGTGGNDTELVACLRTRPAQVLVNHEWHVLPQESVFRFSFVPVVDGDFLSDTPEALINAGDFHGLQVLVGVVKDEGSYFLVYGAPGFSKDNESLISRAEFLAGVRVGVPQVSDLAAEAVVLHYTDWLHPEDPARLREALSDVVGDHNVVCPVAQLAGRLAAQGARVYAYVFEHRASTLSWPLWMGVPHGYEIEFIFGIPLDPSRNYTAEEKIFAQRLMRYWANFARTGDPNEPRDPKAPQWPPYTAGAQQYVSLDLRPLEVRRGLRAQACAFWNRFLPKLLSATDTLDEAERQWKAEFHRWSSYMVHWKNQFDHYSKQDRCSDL

| Compound | IC50 at 24 h [1] [µM] | IC50 (Acetylcholinesterase) [µM] | IC50 (Cholinesterase) [µM] | inhibition [2] [%] | Activity (Rattus norvegicus [3]) [cm] | Activity (Rattus norvegicus [4]) |
| --- | --- | --- | --- | --- | --- | --- |
| Cc1cc(C)cc(Oc2ccc3nc4c(c(N)c3c2)CCC4)c1 | 39 | 3.72 | 5.48 | 9.6 |  |  |
| Cc1ccccc1Oc1ccc2nc3c(c(N)c2c1)CCCC3 | 25 | 3.78 | 4.15 | 19.3 |  |  |
| COc1ccccc1Oc1ccc2nc3c(c(N)c2c1)CCCCC3 | 74 | 9.62 | 5.48 | 57.6 |  |  |
| Nc1c2c(nc3ccc(Oc4ccccc4)cc13)CCCCC2 | 38 | 5.36 | 1.4 | 34.9 |  |  |
| Cc1ccc(Oc2ccc3nc4c(c(N)c3c2)CCCCC4)cc1 | 140 | 3.79 | 2.78 | 11.9 |  |  |
| Nc1c2c(nc3ccc(Oc4ccc(Cl)cc4)cc13)CCCC2 | 12 | 2.92 | 3.32 | 14.2 |  |  |
| Nc1c2c(nc3ccc(Oc4ccc(Cl)cc4)cc13)CCCCC2 | 90 | 4.22 | 1.85 | 12 |  |  |
| Cc1cccc(Oc2ccc3nc4c(c(N)c3c2)CCC4)c1 | 34 | 5.28 | 2.81 | 18.1 |  |  |
| CC(C)(C)c1ccc(Oc2ccc3nc4c(c(N)c3c2)CCCCC4)cc1 | 9 | 71.6 | 2.51 | 10.1 |  |  |
| CC(C)(C)c1ccc(Oc2ccc3nc4c(c(N)c3c2)CCCC4)cc1 | 5.1 | 1.96 | 6.61 | 16 |  |  |
| Cc1ccccc1Oc1ccc2nc3c(c(N)c2c1)CCCCC3 | 26 | 5.8 | 4.17 | 8.8 |  |  |
| Cc1cccc(Oc2ccc3nc4c(c(N)c3c2)CCCC4)c1 | 20 | 9.19 | 3.66 | 21.2 |  |  |
| Cc1ccccc1Oc1ccc2nc3c(c(N)c2c1)CCC3.Cl | 78 | 28.2 |  | 16.6 | 59.5 | Active |
| Cc1ccc(Oc2ccc3nc4c(c(N)c3c2)CCCC4)cc1 | 20 | 3.29 | 1.95 | 18 |  |  |
| Nc1c2c(nc3ccc(Oc4ccccc4)cc13)CCC2 | 55 | 6.42 | 2.93 | 30.3 |  |  |
| Nc1c2c(nc3ccc(Oc4ccc(Cl)cc4)cc13)CCC2 | 28 | 5.07 | 3.6 | 8.7 |  |  |
